Test results as given in the supplement of paper PMC11451515.

Tested on: SEM cells
Assay: cell viability relative to DMSO control; higher = less cytotoxic
Settings: 48 h
Procedure, shortened: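 Library compounds in DMSO were pin-dosed in an 11-point threefold series (47 μM to 0.79 nM) onto leukemia cells in 1536-well plates (5 μl). Plates held 500 cells/well of NOMO1 or SEM or 1000 cells/well of P12-Ichikawa, each adapted for at least four passages in each medium. Luminescence was read with CellTiter-Glo One after 48 h at 37°C. Viability means the per-plate percentage relative to DMSO wells, using cell-free wells as background.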

[1] = HPLM + 10% dialyzed FBS, 0.000781 µM
[2] = HPLM + 10% dialyzed FBS, 0.00234 µM
[3] = HPLM + 10% dialyzed FBS, 0.00702 µM
[4] = HPLM + 10% dialyzed FBS, 0.0211 µM
[5] = HPLM + 10% dialyzed FBS, 0.0632 µM
[6] = HPLM + 10% dialyzed FBS, 0.19 µM
[7] = HPLM + 10% dialyzed FBS, 0.569 µM
[8] = HPLM + 10% dialyzed FBS, 1.71 µM
[9] = HPLM + 10% dialyzed FBS, 5.12 µM
[10] = HPLM + 10% dialyzed FBS, 15.4 µM
[11] = HPLM + 10% dialyzed FBS, 46.1 µM
[12] = RPMI 5 mM glucose + 10% FBS, 0.000781 µM
[13] = RPMI 5 mM glucose + 10% FBS, 0.00234 µM
[14] = RPMI 5 mM glucose + 10% FBS, 0.00702 µM
[15] = RPMI 5 mM glucose + 10% FBS, 0.0211 µM
[16] = RPMI 5 mM glucose + 10% FBS, 0.0632 µM
[17] = RPMI 5 mM glucose + 10% FBS, 0.19 µM
[18] = RPMI 5 mM glucose + 10% FBS, 0.569 µM
[19] = RPMI 5 mM glucose + 10% FBS, 1.71 µM
[20] = RPMI 5 mM glucose + 10% FBS, 5.12 µM
[21] = RPMI 5 mM glucose + 10% FBS, 15.4 µM
[22] = RPMI 5 mM glucose + 10% FBS, 46.1 µM
[23] = RPMI 5 mM glucose + 10% dialyzed FBS, 0.000781 µM
[24] = RPMI 5 mM glucose + 10% dialyzed FBS, 0.00234 µM
[25] = RPMI 5 mM glucose + 10% dialyzed FBS, 0.00702 µM
[26] = RPMI 5 mM glucose + 10% dialyzed FBS, 0.0211 µM
[27] = RPMI 5 mM glucose + 10% dialyzed FBS, 0.0632 µM
[28] = RPMI 5 mM glucose + 10% dialyzed FBS, 0.19 µM
[29] = RPMI 5 mM glucose + 10% dialyzed FBS, 0.569 µM
[30] = RPMI 5 mM glucose + 10% dialyzed FBS, 1.71 µM
[31] = RPMI 5 mM glucose + 10% dialyzed FBS, 5.12 µM
[32] = RPMI 5 mM glucose + 10% dialyzed FBS, 15.4 µM
[33] = RPMI 5 mM glucose + 10% dialyzed FBS, 46.1 µM

SMILES | cell viability [1] | cell viability [2] | cell viability [3] | cell viability [4] | cell viability [5] | cell viability [6] | cell viability [7] | cell viability [8] | cell viability [9] | cell viability [10] | cell viability [11] | cell viability [12] | cell viability [13] | cell viability [14] | cell viability [15] | cell viability [16] | cell viability [17] | cell viability [18] | cell viability [19] | cell viability [20] | cell viability [21] | cell viability [22] | cell viability [23] | cell viability [24] | cell viability [25] | cell viability [26] | cell viability [27] | cell viability [28] | cell viability [29] | cell viability [30] | cell viability [31] | cell viability [32] | cell viability [33]
C[C@@H]1CN(Cc2ccc(F)cc2)[C@@H](C)CN1C(=O)c1cc2c(C(=O)C(=O)N(C)C)cn(C)c2cc1Cl | 97.6% | 99.7% | 100% | 111% | 111% | 109% | 106% | 102% | 85.6% | 98.2% | 97.2% | 84.5% | 78.1% | 85% | 87.2% | 101% | 91.1% | 96.8% | 87.4% | 97.6% | 72.3% | 57% | 115% | 104% | 110% | 107% | 119% | 108% | 108% | 109% | 82.3% | 97.2% | 75.4%
N#CC(c1ccnc(NCCc2cccnc2)n1)c1nc2ccccc2s1 (stereo unspecified) | 110% | 122% | 118% | 117% | 126% | 136% | 134% | 131% | 144% | 137% | 115% | 105% | 105% | 144% | 125% | 133% | 118% | 124% | 132% | 140% | 132% | 120% | – | – | – | – | – | – | – | – | – | – | –
NC(=O)Nc1sc(-c2ccc(F)cc2)cc1C(N)=O | 99.3% | 113% | 115% | 110% | 96.7% | 125% | 119% | 103% | 90.5% | 61.7% | 18.3% | – | – | – | – | – | – | – | – | – | – | – | 112% | 116% | 117% | 103% | 125% | 109% | 106% | 97.2% | 75.1% | 55.9% | 11%
O=C1CCC[C@@H]2[C@H]3CCCN4CCC[C@@H](CN12)[C@@H]34 | 44.2% | 65.4% | 55.2% | 65.6% | 72.7% | 73.2% | 72.3% | 78.1% | 67.5% | 71.3% | 73% | 73% | 87% | 75.5% | 82.4% | 92.8% | 92.2% | 93.2% | 84% | 63.1% | 80% | 72.6% | 60.4% | 79.1% | 62.4% | 89.7% | 73.9% | 82.6% | 77.6% | 72.3% | 64.2% | 68.5% | 68.3%
CC(NC(C)(C)C)C(=O)c1cccc(Cl)c1 (stereo unspecified) | 94.9% | 120% | 102% | 100% | 109% | 104% | 108% | 64.6% | 127% | 46% | 103% | 106% | 123% | 117% | 108% | 114% | 119% | 127% | 73.2% | 125% | 23.1% | 98.9% | 99.9% | 128% | 123% | 112% | 117% | 140% | 139% | 71.9% | 135% | 35.7% | 126%
N[S+](=O)([O-])c1cc2c(cc1Cl)NC(C(Cl)Cl)N[S+]2(=O)[O-] (stereo unspecified) | 89% | 95.6% | 98.8% | 86.3% | 105% | 103% | 102% | 91.5% | 111% | 116% | 111% | 103% | 110% | 90.3% | 107% | 114% | 113% | 122% | 123% | 115% | 129% | 109% | 95.1% | 108% | 113% | 102% | 124% | 122% | 121% | 132% | 142% | 106% | 125%
O=C([O-])C[C@H](O)C[C@H](O)/C=C/c1c(C2CC2)nc2ccccc2c1-c1ccc(F)cc1 | 82.3% | 73.1% | 97.5% | 102% | 89.1% | 90% | 86.1% | 83.9% | 87.4% | 70% | 18.9% | 99.4% | 85.2% | 99.1% | 97.9% | 108% | 99.4% | 96.7% | 109% | 81.6% | 43.7% | 10.7% | 99.1% | 81% | 91.7% | 95.9% | 112% | 85% | 79.6% | 97.9% | 94.5% | 69.1% | 13.6%
CC[N+](CC)(CC)CCOc1cccc(OCC[N+](CC)(CC)CC)c1OCC[N+](CC)(CC)CC | – | – | – | – | – | – | – | – | – | – | – | 134% | 118% | 124% | 110% | 123% | 131% | 116% | 119% | 126% | 123% | 111% | 117% | 137% | 121% | 112% | 144% | 144% | 122% | 115% | 128% | 122% | 128%
